The record followed here is ChEMBL document CHEMBL4706707, “Discovery of novel HBV capsid assembly modulators by structure-based virtual screening and bioassays” (Bioorg Med Chem, 2021).

Molecules are shown by their SMILES.

Data set [1] has as its system Hepatitis B virus. In words: Antiviral activity against HBV infected in human HepG2.2.15 cells assessed as inhibition of viral growth measured by reduction in DNA level at 20 uM compound addition at every 3 days for 7 days by qPCR analysis relative to control. The data set is classed as functional. Particulars: HepG2.2.15, 168 h, time 7 day.
Data set [2] is described as follows: Cytotoxicity against human HepG2.2.15 cells assessed as reduction in cell viability compound addition at every 3 days for 7 days by MTT assay. The data set is classed as cell-based, HepG2 2.2.15. Particulars: time 7 day.
Data set [3] has as its system Hepatitis B virus. In words: Antiviral activity against HBV infected in human HepG2.2.15 cells assessed as inhibition of viral growth measured by reduction in DNA level compound addition at every 3 days for 7 days by qPCR analysis. Format: functional, organism-based.
The next data set concerns HEK293T. In words: Inhibition of HBV VFP-fused HBV-VN (N1 to 154 residue)/ VFP-fused HBV-VC (C155 to 239 residue) capsid protein assembly in 293T cells assessed as mean flouroscent intensity sat 50 uM by BIFC assay. To be noted: Hepatitis B virus. The data set is classed as cell-based.

`N#CC1=C(N)N(c2nc[nH]n2)C2=C(C(=O)C[C@@H](c3ccccc3)C2)[C@H]1c1cccnc1`: the inhibition at 20 µM with Hepatitis B virus [1] worked out at 33%.
`Cc1ccc(C(=O)COC(=O)c2ccccc2NC(=O)Cc2ccccc2)cc1`: the inhibition at 20 µM in the data set on Hepatitis B virus [1] was 45.9%.
As for `CS(=O)(=O)N1CCCc2cc(C(=O)Nc3ccccc3C(=O)NCc3ccccc3)ccc21`, the inhibition at 20 µM in the data set with Hepatitis B virus [1] was found to be 36.6%.
Take `COc1ccc(-c2cc(C(=O)OCc3ccccc3)c3ccccc3n2)cc1`: in data set [2], the CC50 at 168 h is greater than 20 µM. The EC50 in the data set with Hepatitis B virus [3] was greater than 20 µM.
Regarding `O=C(c1cc(-c2ccsc2Cl)nc2ccccc12)N1CCN(C/C=C/c2ccccc2)CC1`, in data set [2], the CC50 at 168 h was greater than 20 µM. In the data set on Hepatitis B virus [3], the EC50 turned out to be 11.9 µM.
Take `Cc1cccc(-c2cc(C(=O)NCc3ccccn3)c3ccccc3n2)c1`: the CC50 at 168 h in data set [2] is greater than 20 µM. The EC50 with Hepatitis B virus [3] is greater than 20 µM.
Regarding `COc1cc(OC)c(C(=O)Nc2cccc(S(=O)(=O)N3CCCC3)c2)cc1OC`, the inhibition at 20 µM in the data set on Hepatitis B virus [1] is 2.32%.
For the compound `Cc1ccc(-c2cc(C(=O)N3CCC(Cc4ccccc4)CC3)c3ccccc3n2)cc1`, the CC50 at 168 h in data set [2] was greater than 20 µM. The EC50 with Hepatitis B virus [3] worked out at 11.7 µM.
As to `Cc1ccc(CN2C(=N)C(C(=O)NCc3cccnc3)=CC3C(=O)N4C=CC=CC4=NC32)cc1` (centres undefined), in the data set with Hepatitis B virus [1], the inhibition at 20 µM came to 54.5%.
On to `O=C(Nc1c(C(=O)N2CCCCCC2)cnn1-c1ccccc1)c1cccc(F)c1`, for which, in the data set with Hepatitis B virus [1], the inhibition at 20 µM came out at 13.5%.
Take `Cc1ccc([C@H](C)NC(=O)c2cc(-c3cccc(C)c3)nc3ccccc23)cc1`: the CC50 at 168 h in data set [2] is greater than 20 µM. In addition, in the data set on Hepatitis B virus [3], the EC50 is greater than 20 µM.
For the compound `O=C(OCc1ccc(Cl)cc1)c1cc(-c2ccccc2)nc2ccccc12`, the CC50 at 168 h in data set [2] is greater than 20 µM. Moreover, the EC50 in the data set on Hepatitis B virus [3] was greater than 20 µM.
`CCCc1nc2ccccc2n1Cc1nc2ccccc2n1CCO`: the inhibition at 20 µM in the data set on Hepatitis B virus [1] was 8.1%.
For `O=C(c1cc(-c2ccsc2Cl)nc2ccccc12)N1CCN(Cc2ccccc2)CC1`, in data set [2], the CC50 at 168 h was greater than 20 µM. The EC50 with Hepatitis B virus [3] was determined as 8.3 µM.
Consider `O=C(c1cc(-c2ccccc2)nc2ccccc12)N1CCC(Cc2ccccc2)CC1`, for which the CC50 at 168 h in data set [2] is greater than 20 µM. The EC50 in the data set with Hepatitis B virus [3] amounted to 8.7 µM.
As to `Cc1ccc(-c2n[nH]c(SCC(=O)N3c4ccccc4Sc4ccccc43)n2)cc1`, the inhibition at 20 µM in the data set on Hepatitis B virus [1] came to 48.7%.
`Cc1ccc(-c2cc(C(=O)N3CCN(Cc4ccccc4)CC3)c3ccccc3n2)cc1`: the CC50 at 168 h in data set [2] is greater than 20 µM. For the same compound, in the data set with Hepatitis B virus [3], the EC50 was 14.5 µM.
As to `O=C(c1cc(-c2cccc(Br)c2)nc2ccccc12)N1CCC(Cc2ccccc2)CC1`, in data set [2], the CC50 at 168 h was greater than 20 µM. For the same compound, the 50% effective concentration (EC50) with Hepatitis B virus [3] is greater than 20 µM.
In the case of `O=C(NCc1ccc(Cl)cc1)c1cc(-c2ccccc2)nc2ccccc12`, the CC50 at 168 h in data set [2] was greater than 20 µM. Besides, the half-maximal effective concentration (EC50) with Hepatitis B virus [3] amounted to 15.7 µM.
As for `Cc1cccc(-c2cc(C(=O)N3CCC(Cc4ccccc4)CC3)c3ccccc3n2)c1`, in data set [2], the CC50 at 168 h is greater than 20 µM. Besides, in the data set with HEK293T, the Flu intensity was determined as 0.25. Besides, the EC50 in the data set with Hepatitis B virus [3] is 1.8 µM.
`O=C(Nc1ccccc1N1CCN(C(=O)c2ccccc2)CC1)C(c1ccccc1)c1ccccc1`: in the data set on Hepatitis B virus [1], the inhibition at 20 µM is 12.2%.
In the case of `CCN(C(=O)Cn1c([C@@H]2CC(=O)N(c3ccccc3C)C2)nc2ccccc21)c1ccccc1`, in the data set on Hepatitis B virus [1], the inhibition at 20 µM is -8.36%.
For `COc1ccccc1N1CCN(C(=O)c2cc(-c3ccc(C)c(C)c3)nc3ccccc23)CC1`, the CC50 at 168 h in data set [2] was greater than 20 µM. Moreover, in the data set on Hepatitis B virus [3], the EC50 worked out at 15.3 µM.
Regarding `CCOc1cccc(-c2cc(C(=O)NCc3nnc(C(C)(C)CC)s3)c3ccccc3n2)c1`, in data set [2], the CC50 at 168 h is greater than 20 µM. In the data set on Hepatitis B virus [3], the 50% effective concentration (EC50) is greater than 20 µM.
`O=C(Nc1ccccc1F)c1ccccc1C(=O)Nc1ccccc1F`: the inhibition at 20 µM in the data set with Hepatitis B virus [1] amounted to 38.5%.
Consider `O=C(Nc1cc(Cl)ccc1O)c1cccc(N2C(=O)c3ccccc3C2=O)c1`, for which the inhibition at 20 µM with Hepatitis B virus [1] was found to be 8.12%.
Consider `Cc1ccc(-c2cc(C(=O)N3CCN(C/C=C/c4ccccc4)CC3)c3ccccc3n2)cc1C`, for which, in data set [2], the cytotoxic concentration (CC50) at 168 h is greater than 20 µM. In addition, in the data set with Hepatitis B virus [1], the inhibition at 20 µM was determined as 72.5%. Further, the concentration giving a half-maximal response (EC50) in the data set on Hepatitis B virus [3] came out at 5.6 µM.
In the case of `O=C(c1cc(-c2ccsc2Cl)nc2ccccc12)N1CCC(Cc2ccccc2)CC1`, the CC50 at 168 h in data set [2] is greater than 20 µM. For the same compound, the concentration for a half-maximal effect (EC50) in the data set with Hepatitis B virus [3] stood at 6.7 µM.
As for `O=C(CCCCC(=O)Nc1ccccc1C(=O)Nc1cccc(Cl)c1)Nc1ccccc1C(=O)Nc1cccc(Cl)c1`, the inhibition at 20 µM with Hepatitis B virus [1] stood at 30.1%.
`CC(C)Cc1ccc(-c2cc(C(=O)N3CCC(Cc4ccccc4)CC3)c3ccccc3n2)cc1`: the CC50 at 168 h in data set [2] is greater than 20 µM. For the same compound, the EC50 in the data set with Hepatitis B virus [3] was greater than 20 µM.
With `CCOC(=O)C1=C(CN2CCOCC2)NC(c2nccs2)=N[C@H]1c1ccc(F)cc1Br`, the Flu intensity with HEK293T was determined as 0.41.
`Cn1c(=O)[nH]c(=O)c2c1nc(SCc1ccc(Cl)cc1)n2CCCc1ccccc1`: the inhibition at 20 µM in the data set with Hepatitis B virus [1] stood at 64.8%.
For `O=C(CN1C(=O)c2ccccc2C1=O)Nc1ccccc1C(=O)N(Cc1ccccc1)Cc1ccccc1`, the inhibition at 20 µM in the data set with Hepatitis B virus [1] is 23.3%.
As for `CCOc1cccc(-c2cc(C(=O)N3CCC(Cc4ccccc4)CC3)c3ccccc3n2)c1`, the CC50 at 168 h in data set [2] was greater than 20 µM. In the data set on Hepatitis B virus [3], the EC50 is 9.8 µM.
